# From patent US20100137353A1, “TRICYCLIC COMPOUNDS AS ANTIBACTERIALS” (GLAXO GROUP LIMITED, priority 2007, published 2010)
# Counter-ions that a name gives are not always drawn.
# Columns and labels:
# [1] = Whole-cell antimicrobial activity assay, broth microdilution (CLSI M7-A7); format: cell-based; conditions: against a strain of at least one of the organisms listed; tested in at least one exemplified salt form; dilutions 0.016 to 16 mcg/mL; read-out: MIC (minimum inhibitory concentration)
# Description: Whole-cell antimicrobial activity was determined by broth microdilution using the Clinical and Laboratory Standards Institute (CLSI) recommended procedure, Document M7-A7, “Methods for Dilution Susceptibility Tests for Bacteria that Grow Aerobically”. The compounds were tested in serial two-fold dilutions ranging from 0.016 to 16 mcg/mL.
# The minimum inhibitory concentration (MIC) was determined as the lowest concentration of compound that inhibited visible growth. A mirror reader was used to assist in determining the MIC endpoint.
# Compounds were evaluated against Gram-positive organisms, including Staphylococcus aureus, Streptococcus pneumoniae, Streptococcus pyogenes, Enterococcus faecalis and Enterococcus faecium.
# In addition, compounds were evaluated against Gram-negative strains including Haemophilus influenzae, Moraxella catarrhalis, Escherichia coli, Pseudomonas aeruginosa, Proteus mirabilis, Enterobacter cloacae, Enterobacter aerogenes, Klebsiella pneumoniae and Stenotrophomonas maltophilia.
# [2] = test system: Mycobacterium tuberculosis H37Rv; assay: Mycobacterium tuberculosis H37Rv Inhibition Assay; format: cell-based; conditions: ATCC 25618 / H37Rv, H37Rv strain (ATCC25618), Middlebrook 7H9+ADC, resazurin fluorescence readout
# Description: Mycobacterium tuberculosis H37Rv Inhibition Assay
# The measurement of the minimum inhibitory concentration (MIC) for each tested compound was performed in 96 wells flat-bottom, polystyrene microtiter plates. Ten two-fold drug dilutions in neat DMSO starting at 400 μM were performed. Five μl of these drug solutions were added to 95 μl of Middlebrook 7H9 medium. (Lines A-H, rows 1-10 of the plate layout). Isoniazid was used as a positive control, 8 two-fold dilution of Isoniazid starting at 160 μgml^−1 was prepared and 5 μl of this control curve was added to 95 μl of Middlebrook 7H9 (Difco catalogue Ref. 271310)+ADC medium (Becton Dickinson Catalogue Ref 211887). (Row 11, lines A-H). Five μl of neat DMSO were added to row 12 (growth and Blank controls).
# The inoculum was standardised to approximately 1×10^7 cfu/ml and diluted 1 in 100 in Middlebrook 7H9+ADC medium and 0.025% Tween 80 (Sigma P4780), to produce the final inoculum of H37Rv strain (ATCC25618). One hundred μl of this inoculum was added to the entire plate but G-12 and H-12 wells (Blank controls). All plates were placed in a sealed box to prevent drying out of the peripheral wells and they were incubated at 37° C. without shaking for six days. […] Fluorescence was measured (Spectramax M5 Molecular Devices, Excitation 530 nm, Emission 590 nm) after 48 hours to determine the MIC value. […]
SMILES,MIC [1],MIC [2]
"O=c1ccc2ncc(F)c3c2n1C[C@@]3(O)CN1CCC(NC/C=C/c2ccccn2)CC1 [Example 1, (4S)-3-Fluoro-4-hydroxy-4-[(4-{[(2E)-3-(2-pyridinyl)-2-propen-1-yl]amino}-1-piperidinyl)methyl]-4,5-dihydro-7H-pyrrolo[3,2,1-de]-1,5-naphthyridin-7-one dihydrochloride]",≤ 2 µg/mL,–
"O=c1ccc2ncc(F)c3c2n1C[C@@]3(O)CN1CCC(NC/C=C/c2ccco2)CC1 [Example 2, (4S)-3-Fluoro-4-[(4-{[(2E)-3-(2-furanyl)-2-propen-1-yl]amino}-1-piperidinyl)methyl]-4-hydroxy-4,5-dihydro-7H-pyrrolo[3,2,1-de]-1,5-naphthyridin-7-one dihydrochloride]",≤ 2 µg/mL,≤ 5.1 µg/mL
